In brackets after ≈: the same amount, converted by molar mass.
How the values were obtained:
CYP2C19 = CYP2C19 (Homo sapiens, UniProt P33261); experiment: biochemical
[1] = 1-octanol-water partition coefficient (LogPA-); settings: ionized species
GR = GR (Homo sapiens, UniProt P04150); experiment: AlphaScreen nuclear receptor activation; assay type: biochemical
RARα = RARα (Homo sapiens, UniProt P10276); experiment: AlphaScreen nuclear receptor activation; assay type: biochemical
hERG potassium channel = hERG potassium channel (Homo sapiens, UniProt Q12809); experiment: PREDICTOR hERG Fluorescence Polarization assay; settings: CHO-hERG membrane preparations
HepG2 cells = experiment: cells; settings: Homo sapiens, HepG2, read-out: Membrane integrity EC50 (μM) (LDH measure)
Surface tension at CMC = assay type: physicochemical; settings: […] NaCl water solution
CYP2E1 = CYP2E1 (Homo sapiens, UniProt P05181); experiment: biochemical
CYP3A4 [2] = molecular target: T1, CYP3A4 (Homo sapiens, UniProt P08684); experiment: CYP450 inhibition, recombinant baculosomes, fluorescent signal; settings: read-out: CYP3A4 (Green Substrate) IC50
FXR target genes = experiment: Quantitative RT-PCR of FXR target genes in HepG2 cells; assay type: cell-based, human; settings: 1 μM, overnight
CYP1A2 = molecular target: T2, CYP1A2 (Homo sapiens, UniProt P05177); experiment: biochemical
T2 sequence (P05177 1-516): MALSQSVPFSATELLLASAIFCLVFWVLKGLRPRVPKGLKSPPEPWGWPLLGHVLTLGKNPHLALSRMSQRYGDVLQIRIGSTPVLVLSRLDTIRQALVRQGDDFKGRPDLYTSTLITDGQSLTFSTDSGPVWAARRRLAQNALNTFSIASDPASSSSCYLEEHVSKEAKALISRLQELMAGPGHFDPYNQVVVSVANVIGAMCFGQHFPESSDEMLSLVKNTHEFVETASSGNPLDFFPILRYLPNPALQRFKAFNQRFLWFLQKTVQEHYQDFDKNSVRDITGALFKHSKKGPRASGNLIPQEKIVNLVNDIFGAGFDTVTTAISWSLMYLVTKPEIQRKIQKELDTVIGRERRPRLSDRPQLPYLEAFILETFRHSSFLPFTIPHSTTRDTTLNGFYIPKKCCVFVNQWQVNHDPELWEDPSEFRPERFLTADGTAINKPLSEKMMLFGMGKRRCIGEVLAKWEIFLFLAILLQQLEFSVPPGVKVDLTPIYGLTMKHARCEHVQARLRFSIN

PPARδ = PPARδ (Homo sapiens, UniProt Q03181); experiment: AlphaScreen nuclear receptor activation; assay type: biochemical
CYP3A4 [3] = molecular target: T1, CYP3A4; experiment: biochemical
physchem = settings: water
RXR = experiment: AlphaScreen nuclear receptor activation; assay type: biochemical
CAR = CAR (Homo sapiens, UniProt Q14994); experiment: AlphaScreen nuclear receptor activation; assay type: biochemical
CYP2D6 = CYP2D6 (Homo sapiens, UniProt P10635); experiment: biochemical
PR = PR (Homo sapiens, UniProt P06401); experiment: AlphaScreen nuclear receptor activation; assay type: biochemical
VDR = VDR (Homo sapiens, UniProt P11473); experiment: AlphaScreen nuclear receptor activation; assay type: biochemical
LXRβ = LXRβ (Homo sapiens, UniProt P55055); experiment: AlphaScreen nuclear receptor activation; assay type: biochemical
[4] = Critical micellar concentration; assay type: physicochemical; settings: […] NaCl water solution
PPARγ = PPARγ (Homo sapiens, UniProt P37231); experiment: AlphaScreen nuclear receptor activation; assay type: biochemical
PXR = molecular target: T3, PXR (Homo sapiens, UniProt O75469); experiment: AlphaScreen nuclear receptor activation; assay type: biochemical
T3 sequence (O75469 1-434): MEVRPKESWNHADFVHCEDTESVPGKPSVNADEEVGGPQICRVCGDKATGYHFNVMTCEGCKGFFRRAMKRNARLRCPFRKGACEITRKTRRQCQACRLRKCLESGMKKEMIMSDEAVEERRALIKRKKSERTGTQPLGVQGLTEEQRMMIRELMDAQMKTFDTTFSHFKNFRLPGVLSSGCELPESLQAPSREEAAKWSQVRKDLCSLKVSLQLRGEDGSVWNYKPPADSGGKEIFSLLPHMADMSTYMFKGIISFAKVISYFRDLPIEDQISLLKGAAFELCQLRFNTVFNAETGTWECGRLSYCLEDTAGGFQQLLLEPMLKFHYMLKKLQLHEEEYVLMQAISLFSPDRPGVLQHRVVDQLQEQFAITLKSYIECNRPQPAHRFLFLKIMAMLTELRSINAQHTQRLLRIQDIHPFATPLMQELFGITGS

TR = experiment: AlphaScreen nuclear receptor activation; assay type: biochemical
PPARα = PPARα (Homo sapiens, UniProt Q07869); experiment: AlphaScreen nuclear receptor activation; assay type: biochemical
CYP2C9 = CYP2C9 (Homo sapiens, UniProt P11712); experiment: biochemical

For `CC[C@H]1[C@@H](O)[C@@H]2[C@H](CC[C@]3(C)[C@@H]([C@H](C)CCC(=O)O)CC[C@@H]23)[C@@]2(C)CC[C@@H](O)C[C@@H]12` [Compound A, 6α-ethyl-3α,7α-dihydroxy-5β-cholan-24-oic acid], the IC50 (CYP2C19) was over 10 µM, the “LogPA−(d) 1-octanol-water partition coefficient” value [1] was 2.5 and the “GR Activation EC50 (μM)” value (GR) was “No activity”. For the same compound, the “RARα Activation EC50 (μM)” value (RARα) was “No activity”, the “block or inhibition of the hERG potassium channel” value (hERG potassium channel) was “does not block or inhibit” and the EC50 (HepG2 cells) was 190 ± 30 µM. For the same compound, the “STCMC(c) (Dyne/cm) Surface Tension at CMC” value (Surface tension at CMC) was 43.2-48.8 Dyne/cm, the IC50 (CYP2E1) was over 10 µM and the IC50 (CYP3A4 [2]) was over 10 µM. The APOCII gene expression (FXR target genes) was “up”, the BSEP gene expression (FXR target genes) was “up” and the CYP7α1 gene expression (FXR target genes) was “down”. The FGF-19 gene expression (FXR target genes) was “up”, the MRP2 gene expression (FXR target genes) was “up” and the OSTα gene expression (FXR target genes) was “up”. The OSTβ gene expression (FXR target genes) was “up”, the PEPCK gene expression (FXR target genes) was “up” and the PLTP gene expression (FXR target genes) was “up”. The PPARγ gene expression (FXR target genes) was “up”, the SHP gene expression (FXR target genes) was “up” and the SREBP-1C gene expression (FXR target genes) was “down”. For the same compound, the UGT2B4 gene expression (FXR target genes) was “up”, the IC50 (CYP1A2) was over 10 µM and the “PPARδ Activation EC50 (μM)” value (PPARδ) was “No activity”. The IC50 (CYP3A4 [3]) was over 10 µM, the solubility (physchem) was 9 µM (≈ 3.79 µg/mL) and the “RXR Activation EC50 (μM)” value (RXR) was “No activity”. The “CAR Activation EC50 (μM)” value (CAR) was “No activity”, the IC50 (CYP2D6) was over 10 µM and the “PR Activation EC50 (μM)” value (PR) was “No activity”. For the same compound, the “VDR Activation EC50 (μM)” value (VDR) was “No activity”, the “LXRβ Activation EC50 (μM)” value (LXRβ) was “No activity” and the “ER Activation EC50 (μM)” value (ER) was “No activity”. For the same compound, the “CMC(b) (mM) Critical Micellar Concentration” value [4] was 2.9 mM, the “PPARγ Activation EC50 (μM)” value (PPARγ) was “No activity” and the “PXR Activation EC50 (μM)” value (PXR) was “No activity”. For the same compound, the “TR Activation EC50 (μM)” value (TR) was “No activity”, the “PPARα Activation EC50 (μM)” value (PPARα) was “No activity” and the IC50 (CYP2C9) was over 10 µM.
